# Reference: BindingDB's records for doi:10.1021/acs.jmedchem.9b00021 (2019)
# Target: T1, Menin (Homo sapiens, UniProt O00255)
# T1 sequence (O00255 whole entry): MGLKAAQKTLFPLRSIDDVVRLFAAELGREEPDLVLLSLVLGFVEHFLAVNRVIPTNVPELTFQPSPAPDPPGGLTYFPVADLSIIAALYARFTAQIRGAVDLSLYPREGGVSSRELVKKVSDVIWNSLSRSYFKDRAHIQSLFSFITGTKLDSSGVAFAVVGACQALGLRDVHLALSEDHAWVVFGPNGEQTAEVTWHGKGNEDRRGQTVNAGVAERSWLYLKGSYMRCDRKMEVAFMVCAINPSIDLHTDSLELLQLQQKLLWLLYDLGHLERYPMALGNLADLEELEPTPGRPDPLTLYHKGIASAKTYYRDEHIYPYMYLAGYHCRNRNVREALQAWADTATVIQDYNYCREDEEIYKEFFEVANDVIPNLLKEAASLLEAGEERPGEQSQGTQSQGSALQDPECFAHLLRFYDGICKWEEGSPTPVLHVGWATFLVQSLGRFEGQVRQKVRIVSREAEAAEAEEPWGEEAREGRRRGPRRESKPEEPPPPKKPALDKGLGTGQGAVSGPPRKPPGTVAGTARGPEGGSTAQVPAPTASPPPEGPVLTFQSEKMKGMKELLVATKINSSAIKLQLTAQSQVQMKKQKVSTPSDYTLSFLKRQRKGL
# Experiment: Inhibition of FAM-probe binding to Menin (unknown origin) after 60 mins by fluorescence polarization competitive binding assay
structure (smiles),measurement,value
CC(=O)O[C@@H]1CCC[C@H]1[C@](C#N)(c1ccccc1)C1CCN(CC2CN(c3ccc(C#N)cc3)C2)CC1,IC50,3.5 µM
same,Ki,1.1 µM
